The values below come from patent US11999739B2, “Antimicrobials methods of making and using the same” (BIOVERSYS AG, priority 2016, dated 2024).

The test system of experiment [1] is Staphylococcus aureus (S. aureus) 11540 strain. Description: Standard microdilution MIC assay, S. aureus. It counts as cell-based. The procedure: (§1) The in vitro activity of the compounds of the present disclosure can be determined. Antimicrobial testing is typically performed to determine the minimum inhibitory concentration (MIC). Minimum inhibitory concentrations (MICs) are determined by the microdilution method in a final volume of 100 μl according to protocols outlined by The Clinical and Laboratory Standards Institute (CLSI). Performance standards for reference strains are assessed within the same experimental design to maintain quality control. See, for example, Clinical Laboratory Standards Institute: Methods for dilution antimicrobial susceptibility tests for bacteria that grow aerobically M7-A8. Approved Standard-Eighth Edition. Wayne, PA: CLSI; December 2008; and Clinical Laboratory Standards Institute: Performance Standards for Antimicrobial Susceptibility Testing M100-S20; Approved Standard-Twentieth Edition. Wayne, PA: CLSI; June 2010.
(§2) The compounds of the present disclosure were tested for antimicrobial activity. The Compounds 1-293 were run against Escherichia coli (E co/i) strain ATCC25922 and against Staphylococcus aureus (S. aureus) 11540 strain using a standard microdilution assay to determine minimum inhibitory concentrations (MICs). […] It will be recognized by one skilled in the art that the compounds can be assessed against other bacterial organisms and that the presentation of data for activity against Escherichia coli and Staphylococcus aureus are illustrative and in no way is intended to limit the scope of the present disclosure. The compounds of the present disclosure can be assayed against a range of other microorganisms depending upon the performance activity desired to be gathered. Furthermore, the “+” and “−” representation and the selection of a cutoff value of 16 micrograms/mL is also illustrative and in no way is intended to limit the scope of the present disclosure.

Experiment [2] relates to Escherichia coli strain ATCC25922. Nature of the experiment: Standard microdilution MIC assay, E. coli. It counts as cell-based. The procedure: as §1, §2
On the technique in general: Dilution methods test growth across graded concentrations, often in twofold steps.

Consider `COc1cc(-n2cc3cc(-c4cc(CCC[C@@H](N)CF)cc(C(F)(F)F)c4F)[nH]c3nc2=O)ccc1[C@@H]1CCC[C@@H](CCNC(C)=N)N1` [Compound 237], for which the MIC in experiment [1] and in experiment [2] was no more than 16 µg/mL in each case.
With `C=C[C@H](N)CCCc1cc(Cl)c(F)c(-c2cc3cn(-c4cc(F)c([C@@H]5CCC[C@@H](CCNC(C)=N)N5CCCF)c(SC)c4)c(=O)nc3[nH]2)c1` [Compound 350], the MIC in experiment [1] and in experiment [2] was no more than 16 µg/mL throughout.
For the compound `C=C[C@@H](CCNC(C)=N)NCc1ccc(-n2cc3cc(-c4cc(CCC[C@H](N)C(F)F)cc(Cl)c4F)[nH]c3nc2=O)cc1` [Compound 142], the MIC in experiment [1] and in experiment [2] was no more than 16 µg/mL in each case.
Regarding `CC(C)(CN)CCc1cc(Cl)c(F)c(-c2cc3cn(-c4ccc([C@@H]5COC[C@@H](CCNC(=N)CF)N5)cc4)c(=O)nc3[nH]2)c1` [Compound 72], the minimal inhibitory concentration (MIC) in experiment [1] and in experiment [2] was no more than 16 µg/mL in each case.
On to `C=CCN(CC[C@@H]1CCC[C@@H](c2ccc(-n3cc4cc(-c5cc(CCC[C@H](C)N)cc(Cl)c5F)[nH]c4nc3=O)cc2)N1C)C(C)=N` [Compound 180], for which the MIC in experiment [1] and in experiment [2] was no more than 16 µg/mL throughout.
In the case of `CSc1cc(-n2cc3cc(-c4cc(CCC[C@@H](N)C5CC5)cc(C(F)(F)F)c4)[nH]c3nc2=O)ccc1[C@@H]1CCC[C@@H](CCNC(C)=N)N1CCCF` [Compound 326], the MIC in experiment [1] and in experiment [2] was no more than 16 µg/mL in each case.
For `CC(=N)NCC[C@@H]1CCC[C@@H](c2ccc(-n3cc4cc(-c5cc(CCC[C@@H]6COCCN6)cc(Cl)c5F)[nH]c4nc3=O)cc2)N1` [Compound 226], the MIC in experiment [1] and in experiment [2] was no more than 16 µg/mL throughout.
On to `CC(=N)NCC[C@@H]1COC[C@@H](c2ccc(-n3cc4cc(-c5cc(CCC(C)(C)CN)cc(Cl)c5F)[nH]c4nc3=O)cc2)N1` [Compound 71], for which the MIC in experiment [1] and in experiment [2] was no more than 16 µg/mL each time.
As for `COCCN1[C@H](CCNC(C)=N)CCC[C@H]1c1ccc(-n2cc3cc(-c4cc(CCC[C@H](C)N)cc(Cl)c4F)[nH]c3nc2=O)cc1` [Compound 277], the minimal inhibitory concentration (MIC) in experiment [1] and in experiment [2] was no more than 16 µg/mL each time.
As for `CN=C(C)NCC[C@@H]1CCC[C@@H](c2ccc(-n3cc4cc(-c5cc(CCC[C@H](C)N)cc(Cl)c5F)[nH]c4nc3=O)cc2)N1` [Compound 283], the MIC in experiment [1] and in experiment [2] was no more than 16 µg/mL each time.
As for `CC(=N)NCC[C@@H]1CCC[C@@H](c2c(F)cc(-n3cc4cc(-c5cc(CCC[C@@H](N)C6CC6)cc(Cl)c5F)[nH]c4nc3=O)cc2F)N1` [Compound 247], the MIC in experiment [1] and in experiment [2] was no more than 16 µg/mL throughout.
Turning to `CC(=N)NCCCN[C@H](C)c1ccc(-n2cc3cc(-c4cc(CCC[C@H](C)N)cc(Cl)c4F)[nH]c3nc2=O)cc1F` [Compound 112], the minimal inhibitory concentration (MIC) in experiment [1] and in experiment [2] was no more than 16 µg/mL in each case.
For `C=C[C@H](NCCCNC(C)=N)c1ccc(-n2cc3cc(-c4cc(CCC[C@@H](N)C5CC5)cc(Cl)c4F)[nH]c3nc2=O)cc1` [Compound 266], the minimal inhibitory concentration (MIC) in experiment [1] and in experiment [2] was no more than 16 µg/mL in each case.
With `COC[C@@H](CCNC(C)=N)NCc1ccc(-n2cc3cc(-c4cc(CCC[C@H](C)N)cc(Cl)c4F)[nH]c3nc2=O)cc1` [Compound 189], the minimal inhibitory concentration (MIC) in experiment [1] and in experiment [2] was no more than 16 µg/mL each time.
With `CC(=N)NCC[C@@H]1COC[C@@H](c2ccc(-n3cc4cc(-c5cc(CCC[C@@H](N)C6CC6)cc(Cl)c5F)[nH]c4nc3=O)cc2)N1` [Compound 98], the MIC in experiment [1] and in experiment [2] was no more than 16 µg/mL in each case.
Regarding `COC[C@H](N)CCCc1cc(-c2cc3cn(-c4ccc([C@@H]5CCC[C@@H](CCNC(C)=N)N5)c(OC(F)(F)F)c4)c(=O)nc3[nH]2)cc(C(F)(F)F)c1` [Compound 214], the MIC in experiment [1] and in experiment [2] was no more than 16 µg/mL throughout.
As for `COc1ccc(CCC[C@H](C)N)cc1-c1cc2cn(-c3ccc([C@@H]4CCC[C@@H](CCNC(C)=N)N4)cc3)c(=O)nc2[nH]1` [Compound 377], the MIC in experiment [1] and in experiment [2] was no more than 16 µg/mL in each case.
Regarding `CSc1cc(-n2cc3cc(-c4cc(CCC[C@@H](N)C5CC5)cc(Cl)c4F)[nH]c3nc2=O)cc(F)c1[C@@H]1CCC[C@@H](CCNC(C)=N)N1` [Compound 275], the minimal inhibitory concentration (MIC) in experiment [1] and in experiment [2] was no more than 16 µg/mL in each case.
In the case of `C=C[C@H](N)CCCc1cc(Cl)c(F)c(-c2cc3cn(-c4ccc([C@@H]5CCC[C@@H](CCNC(C)=N)N5CCCF)c(F)c4)c(=O)nc3[nH]2)c1` [Compound 355], the MIC in experiment [1] and in experiment [2] was no more than 16 µg/mL in each case.
For the compound `COC[C@H](N)CCCc1cc(-c2cc3cn(-c4ccc([C@@H]5CCC[C@@H](CCNC(C)=N)N5)c(F)c4)c(=O)nc3[nH]2)cc(C(F)(F)F)c1` [Compound 201], the MIC in experiment [1] and in experiment [2] was no more than 16 µg/mL each time.
Take `COc1cc(-n2cc3cc(-c4cc(CCC[C@@H](N)C5CC5)cc(OC(F)(F)F)c4F)[nH]c3nc2=O)ccc1[C@@H]1CCC[C@@H](CCNC(C)=N)N1` [Compound 234]: the MIC in experiment [1] and in experiment [2] was no more than 16 µg/mL in each case.
On to `CSc1cc(-n2cc3cc(-c4cc(CCC[C@@H](N)C5CC5)cc(C(F)(F)F)c4F)[nH]c3nc2=O)ccc1[C@@H]1CCC[C@@H](CCNC(C)=N)N1` [Compound 251], for which the MIC in experiment [1] and in experiment [2] was no more than 16 µg/mL in each case.
In the case of `CC(=N)NCC[C@@H]1CCC[C@@H](c2ccc(-n3cc4cc(-c5cc(CCC[C@@H](N)C6CC6)cc(C(F)(F)F)c5)[nH]c4nc3=O)cc2F)N1` [Compound 211], the MIC in experiment [1] and in experiment [2] was no more than 16 µg/mL each time.
`C=C[C@H](N)CCCc1cc(Cl)c(F)c(-c2cc3cn(-c4ccc([C@@H]5COC[C@@H](CCNC(=N)CF)N5)cc4)c(=O)nc3[nH]2)c1` [Compound 81]: the MIC in experiment [1] and in experiment [2] was no more than 16 µg/mL throughout.
As for `CC(=N)NCCCN[C@@H](CO)c1ccc(-n2cc3cc(-c4cc(CCC[C@H](C)N)cc(Cl)c4F)[nH]c3nc2=O)cc1` [Compound 132], the minimum inhibitory concentration (MIC) in experiment [1] and in experiment [2] was no more than 16 µg/mL throughout.
As to `C=C[C@@H](CCNC(C)=N)NC(=O)c1ccc(-n2cc3cc(-c4cc(CCC[C@H](C)N)cc(Cl)c4F)[nH]c3nc2=O)cc1` [Compound 60], the MIC in experiment [1] and in experiment [2] was no more than 16 µg/mL in each case.
Take `CC(=N)NCC[C@@H]1CCC[C@@H](c2ccc(-n3cc4cc(-c5cc(CCC[C@H](C)N)cc(C(F)(F)F)c5)[nH]c4nc3=O)cc2F)N1CCCF` [Compound 328]: the MIC in experiment [1] and in experiment [2] was no more than 16 µg/mL in each case.
As for `C=CC(CCNC(=N)CF)NCc1ccc(-n2cc3cc(-c4cc(CCCC(C)(C)N)cc(Cl)c4F)[nH]c3nc2=O)cc1` (stereo not shown) [Compound 22], the MIC in experiment [1] and in experiment [2] was no more than 16 µg/mL each time.
As for `COC[C@H](N)CCCc1cc(OC(F)(F)F)c(F)c(-c2cc3cn(-c4ccc([C@@H]5CCC[C@@H](CCNC(C)=N)N5)c(OC(F)(F)F)c4)c(=O)nc3[nH]2)c1` [Compound 233], the MIC in experiment [1] and in experiment [2] was no more than 16 µg/mL in each case.
For the compound `CC(=N)NCC[C@@H](NCc1ccc(-n2cc3cc(-c4cc(CCC[C@@H](N)C5CC5)cc(Cl)c4F)[nH]c3nc2=O)cc1)C1CC1` [Compound 219], the MIC in experiment [1] and in experiment [2] was no more than 16 µg/mL throughout.
Turning to `CSc1cc(-n2cc3cc(-c4cc(CCC[C@@H](N)C5CC5)cc(C(F)(F)F)c4)[nH]c3nc2=O)ccc1[C@@H]1CCC[C@@H](CCNC(C)=N)N1` [Compound 250], the MIC in experiment [1] and in experiment [2] was no more than 16 µg/mL throughout.
As to `CSc1cc(-n2cc3cc(-c4cc(CCC[C@@H](N)CO)cc(Cl)c4F)[nH]c3nc2=O)ccc1[C@@H]1CCC[C@@H](CCNC(C)=N)N1` [Compound 116], the MIC in experiment [1] and in experiment [2] was no more than 16 µg/mL each time.
As to `CC(=N)NCC[C@H](CO)N[C@@H](C)c1ccc(-n2cc3cc(-c4cc(CCC[C@H](C)N)cc(Cl)c4F)[nH]c3nc2=O)cc1` [Compound 96], the minimum inhibitory concentration (MIC) in experiment [1] and in experiment [2] was no more than 16 µg/mL each time.
`CC(=N)NCC[C@@H]1CCC[C@@H](c2ccc(-n3cc4cc(-c5cc(CCC[C@@H](N)CF)cc(C(F)(F)F)c5F)[nH]c4nc3=O)cc2F)N1` [Compound 221]: the minimum inhibitory concentration (MIC) in experiment [1] and in experiment [2] was no more than 16 µg/mL each time.
Regarding `C[C@H](N)CCCc1cc(Cl)c(F)c(-c2cc3cn(-c4ccc(CN[C@@H](CN)CCNC(=N)CF)cc4)c(=O)nc3[nH]2)c1` [Compound 20], the MIC in experiment [1] and in experiment [2] was no more than 16 µg/mL each time.
In the case of `C=C[C@@H](CCNC(C)=N)N[C@@H](C)c1ccc(-n2cc3cc(-c4cc(CCC[C@@H](N)CO)cc(Cl)c4F)[nH]c3nc2=O)cc1F` [Compound 168], the MIC in experiment [1] and in experiment [2] was no more than 16 µg/mL throughout.
In the case of `CC(=N)NCC[C@@H]1CCC[C@@H](c2ccc(-n3cc4cc(-c5cc(CCCC6(N)CC6)cc(Cl)c5F)[nH]c4nc3=O)cc2)N1` [Compound 147], the minimal inhibitory concentration (MIC) in experiment [1] and in experiment [2] was no more than 16 µg/mL throughout.
For `CC(=N)NCC[C@@H]1CCC[C@@H](c2ccc(-n3cc4cc(-c5cc(CCC[C@@H](N)CF)cc(Cl)c5F)[nH]c4nc3=O)cc2Cl)N1` [Compound 176], the minimum inhibitory concentration (MIC) in experiment [1] and in experiment [2] was no more than 16 µg/mL each time.

One may read the MIC as the least concentration at which growth counts as inhibited. Lower therefore signals a more susceptible organism.
